{
  "source": "patent US20060263302A1",
  "about": "“Systemic oxygenation via gastric perfusion with perfluorocarbon (PFC)” (Thomas Jefferson University, priority 2005, published 2006)",
  "key": {"[1]": {"assay": "Properties of perfluorocarbon (physical characteristics of neat F44E)", "format": "physicochemical", "source_text": "Perfluorocarbon: Seventy liters of neat perfluorocarbon F44E (trans-bis-perfluorobutyl ethylene) were provided as a generous gift from Neuron Therapeutics, Inc (Malvern, Pa.). This perfluorocarbon is clear, colorless, odorless, immiscible with water or blood and has the physical characteristics listed in Table 1."}, "Sus scrofa pigs": {"tested_on": "Sus scrofa pigs", "assay": "Peritoneal perfusion with perfluorocarbon in pigs made hypoxic by ventilation with subatmospheric oxygen; arterial blood gases", "format": "in vivo", "conditions": "for Fitted mean PaO2 / Observed mean PaO2: pigs, peritoneal perfusion; for Fitted treatment effect: mean PaO2 difference perfluorocarbon versus saline / Observed treatment effect: mean PaO2 difference perfluorocarbon versus saline: oxygenation on", "procedure": "Animals: Fifteen Sus scrofa pigs weighing 45-55 kg were used for the experiments. All experiments were approved by the Thomas Jefferson University Institutional Animal Care and Use Committee. The care and handling of all animals were in accord with United States Department of Agriculture guidelines.\nSurgical procedure: The animals were induced with Telazol (Fort Dodge Animal Health, Fort Dodge, Iowa) 5 mg/kg injected intramuscularly (IM), after which an intravenous catheter was placed in an ear vein and 30 mg of Propofol (Baxter, Irvine, Calif.) was injected intravenously (IV). The animals were then intubated with a 7.5 mm internal diameter endotracheal tube (Mallinckrodt Inc., St. Louis, Mo.) and maintained with isoflurane inhalation anesthesia, using intermittent Propofol injections for any evidence of discomfort or awakening. The animals were placed on a Harvard Apparatus Dual Phase Control Respirator Pump (South Natick, Mass.) mechanical ventilator with a tidal volume of 10-15 ml/kg and a rate of 12-15 breaths per minute. Prior to subjecting the animal to hypoxia, the respiratory rate was occasionally adjusted in an effort to maintain a neutral pH, as determined by arterial blood gas measurements. Electrocardiography leads were placed in the standard 3-lead positions on each animal, starting at the time of induction, and continuously monitored throughout the experiment. Oxygen saturation was also measured with a Vet/Ox Plus 4700 (SDI, Waukesha, Wis.) pulse oxymeter with the probe placed on the animal's tongue. Once under general anesthesia and in the supine position, a cervical cut down was performed through which a Swan-Ganz right heart catheter (Edwards Lifesciences, Irvine, Calif.) was placed via the internal jugular vein and an 18-gauge angiocatheter was placed in the common carotid artery for access to the central arterial system for blood pressure monitoring and arterial blood gas measurements. Both of these lines were transduced using a pressure monitoring kit with a TruWave pressure transducer (Edwards Lifesciences, Irvine, Calif.) and connected to a Hewlett-Packard Monitor 78834A (Palo Alto, Calif.) system for monitoring the systemic and pulmonary arterial pressures and the central venous pressure.\nAfter placement of the arterial and venous lines, a lower midline laparotomy was performed. A 28 French venous return cannula catheter (Edwards Lifesciences, Irvine, Calif.) was placed in the left paracolic gutter and brought out through a separate site in the left lower quadrant and sutured in place using a number 1 Prolene suture (Ethicon, Sommerville, N.J.). A 42 French venous return cannula (Edwards Lifesciences, Irvine, Calif.) was placed in an identical manner on the right side, with the tip lodged above the dome of the liver. The abdomen was then closed in a single layer with a running number I Prolene. In the first two animals in each experimental group, an additional 14 French catheter (Edwards Lifesciences, Irvine, Calif.) was placed near the midline for pressure monitoring purposes and was maintained in a vertical attitude, attached to a ruler such that the height of the column of fluid could be easily monitored. Peritoneal pressure measurements in centimeters of H2O were calculated by multiplying column height by the correction factor 1.67 (specific gravity of trans-bis-perfluorobutyl ethylene).\nHypoxia circuit: A Matrx anesthesia machine (Orchard Park, N.Y.) was used for blending gasses and isoflurane inhaled anesthetic. Pure nitrogen, rather than filtered room air, was mixed with pure oxygen to achieve subatmospheric concentrations of oxygen. The animal was ventilated using a standard bifurcated anesthesia circuit to maintain unidirectional flow of gasses. A Datex machine (Puritan-Bennett Corporation, Overland Park, Kans.) was attached to the ventilation circuit and allowed real-time monitoring of the oxygen and anesthetic agent concentration. […]"}},
  "note": "“And” between values parts separate entries of the source, which are not always exact repeats. Equal values may be shown once.",
  "data": [
    {"molecule": "FC(F)(F)C(F)(F)C(F)(F)C(F)(F)/C=C/C(F)(F)C(F)(F)C(F)(F)C(F)(F)F", "note": "[perfluorocarbon, trans-bis-perfluorobutyl ethylene]", "values": [
      {"measurement": "specific gravity (correction factor for peritoneal pressure)", "setting": "[1]", "value": 1.67},
      {"measurement": "Carbon dioxide capacity", "setting": "[1]; neat perfluorocarbon F44E", "value": 200, "unit": "vol %"},
      {"measurement": "Oxygen capacity", "setting": "[1]; neat perfluorocarbon F44E", "value": 50, "unit": "vol %"},
      {"measurement": "Specific gravity", "setting": "[1]; neat perfluorocarbon F44E", "value": 1.668, "unit": "g/cc"},
      {"measurement": "Fitted mean PaO2", "setting": "Sus scrofa pigs; FiO2 10%, O2 Off", "value": 25.7, "unit": "mm Hg"},
      {"measurement": "Observed mean PaO2", "setting": "Sus scrofa pigs; FiO2 10%, O2 Off", "value": 28.0, "unit": "mm Hg"},
      {"measurement": "Fitted mean PaO2", "setting": "Sus scrofa pigs; FiO2 10%, O2 On", "value": 35.2, "unit": "mm Hg"},
      {"measurement": "Observed mean PaO2", "setting": "Sus scrofa pigs; FiO2 10%, O2 On", "value": 36.7, "unit": "mm Hg"},
      {"measurement": "Observed mean PaO2", "setting": "Sus scrofa pigs; FiO2 10%, O2 On, listed as oxygenated perfluorocarbon", "value": "36.7±8.4", "unit": "mm Hg"},
      {"measurement": "Fitted mean PaO2", "setting": "Sus scrofa pigs; FiO2 12%, O2 Off", "value": 38.5, "unit": "mm Hg"},
      {"measurement": "Observed mean PaO2", "setting": "Sus scrofa pigs; FiO2 12%, O2 Off", "value": 37.1, "unit": "mm Hg"},
      {"measurement": "Fitted mean PaO2", "setting": "Sus scrofa pigs; FiO2 12%, O2 On", "value": 44.5, "unit": "mm Hg"},
      {"measurement": "Observed mean PaO2", "setting": "Sus scrofa pigs; FiO2 12%, O2 On", "value": 43.8, "unit": "mm Hg"},
      {"measurement": "Fitted mean PaO2", "setting": "Sus scrofa pigs; FiO2 14%, O2 Off", "value": 51.3, "unit": "mm Hg"},
      {"measurement": "Observed mean PaO2", "setting": "Sus scrofa pigs; FiO2 14%, O2 Off", "value": 48.8, "unit": "mm Hg"},
      {"measurement": "Fitted mean PaO2", "setting": "Sus scrofa pigs; FiO2 14%, O2 On", "value": 53.9, "unit": "mm Hg"},
      {"measurement": "Observed mean PaO2", "setting": "Sus scrofa pigs; FiO2 14%, O2 On", "value": 55.3, "unit": "mm Hg"},
      {"measurement": "Observed mean PaO2", "setting": "Sus scrofa pigs; FiO2 14%, O2 On, listed as oxygenated perfluorocarbon", "value": "55.3±7.6 mm Hg and 55.3 mm Hg"},
      {"measurement": "arterial oxygen saturation (SaO2)", "setting": "Sus scrofa pigs; FiO2 14%, oxygenated perfluorocarbon perfusion (73% with oxygenated saline)", "value": 89, "unit": "%"},
      {"measurement": "Fitted mean PaO2", "setting": "Sus scrofa pigs; FiO2 16%, O2 Off", "value": 64.2, "unit": "mm Hg"},
      {"measurement": "Observed mean PaO2", "setting": "Sus scrofa pigs; FiO2 16%, O2 Off", "value": 63.7, "unit": "mm Hg"},
      {"measurement": "Fitted mean PaO2", "setting": "Sus scrofa pigs; FiO2 16%, O2 On", "value": 63.3, "unit": "mm Hg"},
      {"measurement": "Observed mean PaO2", "setting": "Sus scrofa pigs; FiO2 16%, O2 On", "value": 64.4, "unit": "mm Hg"},
      {"measurement": "Fitted mean PaO2", "setting": "Sus scrofa pigs; FiO2 18%, O2 Off", "value": 77.0, "unit": "mm Hg"},
      {"measurement": "Observed mean PaO2", "setting": "Sus scrofa pigs; FiO2 18%, O2 Off", "value": 79.8, "unit": "mm Hg"},
      {"measurement": "Fitted mean PaO2", "setting": "Sus scrofa pigs; FiO2 18%, O2 On", "value": 72.7, "unit": "mm Hg"},
      {"measurement": "Observed mean PaO2", "setting": "Sus scrofa pigs; FiO2 18%, O2 On", "value": 68.7, "unit": "mm Hg"},
      {"measurement": "Observed mean PaO2", "setting": "Sus scrofa pigs; FiO2 18%, O2 On, listed as oxygenated perfluorocarbon", "value": "68.7±10.4", "unit": "mm Hg"},
      {"measurement": "group-by-oxygenation interaction effect", "setting": "Sus scrofa pigs; average across FiO2 values", "value": "about 6.4 mmHg"},
      {"measurement": "average mean PaO2 difference perfluorocarbon versus saline", "setting": "Sus scrofa pigs; oxygenation off, across all FiO2 values", "value": 6.4, "unit": "mmHg"},
      {"measurement": "Fitted treatment effect: mean PaO2 difference perfluorocarbon versus saline", "setting": "Sus scrofa pigs; FiO2 10%", "value": 9.6, "unit": "mmHg"},
      {"measurement": "Observed treatment effect: mean PaO2 difference perfluorocarbon versus saline", "setting": "Sus scrofa pigs; FiO2 10%", "value": 8.1, "unit": "mmHg"},
      {"measurement": "Fitted treatment effect: mean PaO2 difference perfluorocarbon versus saline", "setting": "Sus scrofa pigs; FiO2 12%", "value": 11.4, "unit": "mmHg"},
      {"measurement": "Observed treatment effect: mean PaO2 difference perfluorocarbon versus saline", "setting": "Sus scrofa pigs; FiO2 12%", "value": 12.4, "unit": "mmHg"},
      {"measurement": "Fitted treatment effect: mean PaO2 difference perfluorocarbon versus saline", "setting": "Sus scrofa pigs; FiO2 14%", "value": 13.2, "unit": "mmHg"},
      {"measurement": "Observed treatment effect: mean PaO2 difference perfluorocarbon versus saline", "setting": "Sus scrofa pigs; FiO2 14%", "value": 15.9, "unit": "mmHg"},
      {"measurement": "Fitted treatment effect: mean PaO2 difference perfluorocarbon versus saline", "setting": "Sus scrofa pigs; FiO2 16%", "value": 15.0, "unit": "mmHg"},
      {"measurement": "Observed treatment effect: mean PaO2 difference perfluorocarbon versus saline", "setting": "Sus scrofa pigs; FiO2 16%", "value": 18.2, "unit": "mmHg"},
      {"measurement": "Fitted treatment effect: mean PaO2 difference perfluorocarbon versus saline", "setting": "Sus scrofa pigs; FiO2 18%", "value": 16.8, "unit": "mmHg"},
      {"measurement": "Observed treatment effect: mean PaO2 difference perfluorocarbon versus saline", "setting": "Sus scrofa pigs; FiO2 18%", "value": 8.2, "unit": "mmHg"},
      {"measurement": "arterial or venous partial pressure of carbon dioxide (PaCO2 or PvCO2), difference between groups", "setting": "Sus scrofa pigs; perfluorocarbon versus saline, irrespective of FiO2", "value": "No statistically significant difference"}
    ]}
  ]
}
